Experimental data published in US6605641B2, “20-HETE antagonists and agonists” (MCW Research Foundation, priority 1998, dated 2003).
pEC50: −log10 of the molar value.

Legend:
[1] = system: isolated, pressured rat renal interlobular arteries; assay: Isolated vessel studies: vasoconstrictor response (vascular diameter) to cumulative doses of 20-HETE analogs; assay type: cell-based
Method: General. Experiments were performed on 10 to 12-week old male Sprague-Dawley rats purchased from Harlan Sprague-Dawley Laboratories (Indianapolis, Ind.). The rats were housed in the animal care facility at the Medical College of Wisconsin, which is approved by the American Association for the Accreditation of Laboratory Animal Care. The animals had free access to food and water. All protocols involving animals received approval by the Animal Care Committee of the Medical College of Wisconsin.
(§1) Isolated vessel studies. Interlobular arterioles (70-120 μm inner diameter) were microdissected from the kidneys of rats. The vessels were mounted on glass micropipettes in a perfusion chamber containing physiological saline solution equilibrated with a 95% O2-5% CO2 gas mixture and maintained at 37° C. The vessel were secured to the pipettes and side branches were tied off with 10-0 silk suture. The inflow pipette was connected to a pressurized reservoir to control of intraluminal perfusion pressure, which was monitored using a transducer (Cobe, Lakewood, Colo.). The vessels were stretched to in vivo length measured before microdissection. The outflow cannula was clamped off and intraluminal pressure was maintained at 90 mm Hg during the experiment. Vascular diameters were measured with a video system composed of a stereo microscope (Carl Zeiss, Inc., Germany), a CCTV television camera (KP-130AU, Hitachi, Japan), a videocassette recorder (AG-7300, Panasonic, Japan), a television monitor (CVM-1271, Sony, Japan), and a video measuring system (VIA-100, Boeckeler Instrument Co., Tucson, Ariz.).
(§2) The composition of the perfusate and the bath was (in mM): 119 NaCl, 4.7 KCl, 1.17 MgSO4, 1.6 CaCl2, 12 NaHCO3, 1.18 NaH2PO4, 0.03 EDTA and 10 glucose, pH 7.4. Indomethacin (5 μM), baicalein (0.5 μM) and 17-ODYA (1 μM) were added to the bath to block the endogenous formation and metabolism of eicosanoids via the cyclooxygenase, lipoxygenase and cytochrome P450 pathways. After the equilibration period, cumulative dose response curves were generated for each of the 20-HETE analogs.
Effect of the position of the hydroxyl group on the vasoconstrictor response to 20-HETE. These experiments examined the effects of increasing concentrations of 5(S)-, 8(S)-, 12(S)-, 15(S)-, and 19(S)-HETE on the diameter of isolated, pressured rat renal interlobular arteries. All of these analogs have the same number of carbons, double bonds and molecular weight as 20-HETE (FIG. 1). The major difference between these compounds and 20-HETE is the position of the OH group along the carbon chain. Additional experiments were performed with arachidonic acid and 20-carboxyarachidonic acid, which are structurally similar to 20-HETE but lack a hydroxyl group on the 20th carbon and 20-hydroxyeicosa-6, 15-dienoic acid (reverse 20-HETE) which has the carboxy- and hydroxy-moieties on the 1st and 20th carbons reversed. Cumulative dose response curves were generated for each compound (10^−8 to 10^−6 M) in the presence of indomethacin, baicalein, and 17-ODYA. Vascular diameters were recorded 2 to 3 minutes after the addition of the compounds to the bath.
Effect of the double bonds and carbon chain length to the vasoconstrictor response to 20-HETE. We next examined the importance of the double bonds and the length of the carbon chain to the vasoconstrictor response to 20-HETE. In these studies, the double bonds in the 20-HETE molecule were removed creating partial and saturated 20-HETE derivatives (20-hydroxyeicosa-6(Z),15(Z) dienoic acid; 20-hydroxyeicosanoic acid, FIG. 1). 20-HETE was also shortened by one carbon, creating a 19-carbon analog (19-hydroxynonadeca-5(Z),8(Z),11(Z),14(Z)-tetraenoic acid, FIG. 1) and double bonds were removed, creating a saturated 19-carbon analog (19 hydroxynonadecanoic acid, FIG. 1). […]

[2] = system: vasoconstrictor response to 20-HETE in isolated renal interlobular arteries; assay: 20-HETE antagonist activity: dose response curves to 20-HETE before and after addition of analog; assay type: cell-based, rat; settings: analog 0.5 or 1 μM in bath, 20-HETE 10^−8 to 10^−6 M
Method: We also disclose below a test for 20-HETE antagonist activity. In this analysis, test compounds were analyzed by a cumulative dose response curve to 20-HETE generated before and after the addition of the test compound. […] We envision suitable antagonists as similarly blocking the vasoconstrictor response.
as §1, §2
20-HETE antagonist activity. […] In these experiments, cumulative dose response curves to 20-HETE (10^−8 to 10^−6 M) were generated before and after addition of 5(S)-HETE (0.5 μM), 8(S)-HETE (1 μM), 12(S)-HETE (0.5 μM), 15(S)-HETE (1 μM), 19(S)-HETE (1 μM), the C19-analog (1 μM), arachidonic acid (1 μM), 20-carboxy-arachidonic acid (1 μM), reverse 20-HETE (1 μM), saturated 20-HETE (1 μM), and the saturated C19-analog (1 μM) to the bath. Vascular diameters were recorded 2 to 3 minutes after the addition of each dose of 20-HETE to the bath.

[3] = system: LLC-PK1 cells; settings: 20-HETE 10^−9 M; cited from earlier work
[4] = system: renal, cerebral and skeletal muscle arterioles; settings: read-out: EC50 as constrictor; cited from earlier work
[5] = system: vascular smooth muscle cells; settings: read-out: EC50 as constrictor; cited from earlier work
[6] = system: OK cells; settings: 20-HETE 10^−9 M; cited from earlier work

Row | SMILES | effect on the diameter of renal interlobular arteries (vasoconstrictor/agonist activity) ([1]; 10^−8 to 10^−6 M (up to 1 μM), indomethacin, baicalein, 17-ODYA present, diameter 2 to 3 minutes after addition) | effect of analog on the vasoconstrictor response to 20-HETE (antagonist activity) [2] | effect of analog on the vasoconstrictor response to 20-HETE (antagonist activity) ([2]; listed as saturated C20-analog) | melting point | growth of cultured cells [3] | threshold concentration that reduced vascular diameter ([1]; renal interlobular arterioles) | pEC50 [4] | pEC50 [5] | growth of cultured cells [6]
1 | O=C(O)CCCCCCCCCCCCCCCCCCCO [saturated 20-HETE derivative, 20-Hydroxyeicosanoic Acid] | no effect | exhibited competitive antagonist activity | not as effective as the parent compounds | 86 °C |  |  |  |  | 
2 | O=C(O)CCC/C=C\C/C=C\C/C=C\C/C=C\CCCCCO [20-HETE, 20-hydroxyeicosatetraenoic acid] |  |  |  |  | promotes the growth | 10 nM | > 8.00 | > 8.00 | promotes the growth
